Measurements taken from patent US9510594B2, “Use of SDHI fungicides on conventionally bred ASR-tolerant, stem canker resistant and/or frog-eye leaf spot resistant soybean varieties” (BAYER INTELLECTUAL PROPERTY GMBH, priority 2011, dated 2016).

System: Phakopsora pachyrhizi
Test: Soybean rust greenhouse test: preventive spray of young soybean plants, ABBOTT % efficacy, Colby comparison
Assay type: in vivo
Details: for Efficacy: fungicide alone, susceptible soybean variety (Miyagishirome), evaluated 11 days after inoculation
Method: One susceptible (Miyagishirome) and soybean varieties tolerant to soybean rust (Phakospora pachyrhizi) (TMG 801 and TMG 803) were cultivated in greenhouse up to 1.5-leaf stage. A suitable preparation of SDHI fungicide was produced by mixing 1 part per weight of the SDHI ingredient with 28.5 parts by weight of acetone as solvent and 1.5 parts by weight of polyoxyethylene alkyl phenyl ether as emulsifier. The concentrate was diluted with water to the desired concentrations.
Young plants of the susceptible and tolerant soybean varieties were sprayed with the preparation of the SDHI fungicide at the stated rate of application to evaluate the activity in controlling Phakopsora pachyrhizi.
One day after spraying, soybean plants were inoculated with an aqueous spore suspension of the causal agent of soybean rust (Phakopsora pachyrhizi). Plants were then placed in a greenhouse at approximately 20 ° C. and a relative atmospheric humidity of approximately 80%. The following trial schedule was applied:
Plants were evaluated 11 days after inoculation. The percentage of infected leaf area was determined visually. The results were calculated according to ABBOTT (% efficacy). 0% means an efficacy which corresponds to that of the control, while an efficacy of 100% means that no disease was observed.
The expected efficiencies for the SDHI fungicide and ASR-tolerant variety combinations were determined according to Colby's formula and compared to the observed efficiencies (Colby, S. R. (1967) Calculating synergistic and antagonistic responses of herbicide combinations, Weeds, 15: 20-22): E=x+y−xy/100
Wherein E is the expected efficacy as a percent of the check when using the combination of a fungicide and ASR-tolerant variety; x is the efficacy of the percent check when using the fungicide; y is the efficacy of the percent check when using the ASR-tolerant variety.
By Comparison of the expected efficacy and the observed efficacy, the synergistic effect can be discerned. If the observed percent efficacy is higher than the calculated expected percent efficacy there is a synergistic effect.

[1] = fungicide + tolerant soybean variety TMG 803, 0.2 ppm a.i.
[2] = fungicide + tolerant soybean variety TMG 803, 1 ppm a.i.
[3] = fungicide + tolerant soybean variety TMG 803, 5 ppm a.i.
[4] = fungicide + tolerant soybean variety TMG 803, 10 ppm a.i.
[5] = fungicide + tolerant soybean variety TMG 803, 25 ppm a.i.
[6] = fungicide + tolerant soybean variety TMG 803, 50 ppm a.i.
[7] = fungicide + tolerant soybean variety TMG 803, 100 ppm a.i.
[8] = fungicide + tolerant soybean variety TMG 801, 0.2 ppm a.i.
[9] = fungicide + tolerant soybean variety TMG 801, 1 ppm a.i.
[10] = fungicide + tolerant soybean variety TMG 801, 5 ppm a.i.
[11] = fungicide + tolerant soybean variety TMG 801, 10 ppm a.i.
[12] = fungicide + tolerant soybean variety TMG 801, 25 ppm a.i.
[13] = fungicide + tolerant soybean variety TMG 801, 50 ppm a.i.

| SMILES | Actual efficacy [1] | Expected value, calculated using Colby's formula [1] | Actual efficacy [2] | Expected value, calculated using Colby's formula [2] | Actual efficacy [3] | Expected value, calculated using Colby's formula [3] | Actual efficacy [4] | Expected value, calculated using Colby's formula [4] | Actual efficacy [5] | Expected value, calculated using Colby's formula [5] | Actual efficacy [6] | Expected value, calculated using Colby's formula [6] | Efficacy (0.2 ppm a.i.) | Efficacy (1 ppm a.i.) | Efficacy (5 ppm a.i.) | Efficacy (10 ppm a.i.) | Efficacy (25 ppm a.i.) | Efficacy (50 ppm a.i.) | Actual efficacy [9] | Expected value, calculated using Colby's formula [9] | other results |
| --- | --- | --- | --- | --- | --- | --- | --- | --- | --- | --- | --- | --- | --- | --- | --- | --- | --- | --- | --- | --- | --- |
| Cn1cc(C(=O)Nc2ccc(F)cc2-c2ccc(Cl)c(Cl)c2)c(C(F)F)n1 [Bixafen, N-(3′,4′-dichloro-5-fluoro-1,1′-biphenyl-2-yl)-3-(difluoromethyl)-1-methyl-1H-pyrazole-4-carboxamide] | 60% | 55% | 70% | 58% | 75% | 64% | 80% | 73% | 96% | 80% | 98% | 82% | 0% | 7% | 20% | 40% | 55% | 60% | – | – | synergistic effect (applied to TMG 803, concentrations from 100 ppm a.i. to 25 ppm a.i.): highest synergistic effect; Actual efficacy [7]: 99%; Expected value, calculated using Colby's formula [7]: 78%; Efficacy (100 ppm a.i.): 50% |
| Cn1cc(C(=O)Nc2ccccc2-c2cc(F)c(F)c(F)c2)c(C(F)F)n1 [Fluxapyroxad, 3-(difluoromethyl)-1-methyl-N-(3′,4′,5′-trifluorobiphenyl-2-yl)-1H-pyrazole-4-carboxamide] | 30% | 20% | 65% | 26% | 70% | 68% | 80% | 76% | 97% | 98% | – | – | 0% | 7% | 60% | 70% | 98% | – | – | – | synergistic effect (1 ppm a.i. applied to TMG 803, compared over all fungicides and rates): most pronounced synergistic effect |
| CC(C)C1C2CCC1c1c(NC(=O)c3cn(C)nc3C(F)F)cccc12 (stereo not drawn) [Isopyrazam] | 55% | 30% | 80% | 65% | – | – | – | – | – | – | – | – | 0% | 50% | – | – | – | – | – | – | – |
| Cc1nn(C)c(F)c1C(=O)Nc1ccccc1C(C)CC(C)C (stereo not drawn) [Penflufen, N-[2-(1,3-dimethylbutyl)phenyl]-5-fluor-1,3-dimethyl-1H-pyrazole-4-carboxamide] | 70% | 50% | 65% | 50% | 95% | 60% | 98% | 60% | 97% | 78% | 100% | 80% | 0% | 0% | 20% | 20% | 55% | 60% | 70% | 50% | deviation of the actual efficacy from the expected value (10 ppm a.i., TMG 801 or TMG 803): highest deviations of the actual efficacy from the expected value; Actual efficacy [8]: 65%; Expected value, calculated using Colby's formula [8]: 50%; Actual efficacy [10]: 70%; Expected value, calculated using Colby's formula [10]: 60%; Actual efficacy [11]: 92%; Expected value, calculated using Colby's formula [11]: 60%; Actual efficacy [12]: 98%; Expected value, calculated using Colby's formula [12]: 78%; Actual efficacy [13]: 100%; Expected value, calculated using Colby's formula [13]: 80% |
| Cn1cc(C(=O)Nc2ccccc2C2CC2C2CC2)c(C(F)F)n1 (stereo not drawn) [Sedaxane] | 50% | 30% | 60% | 30% | 75% | 58% | 95% | 79% | 100% | 99% | – | – | 0% | 0% | 40% | 70% | 98% | – | 82% | 65% | synergistic effect (applied to TMG 803, 0.2 ppm a.i. to 1 ppm a.i. versus 5 ppm a.i. to 25 ppm a.i.): higher synergism; Actual efficacy [10]: 90%; Expected value, calculated using Colby's formula [10]: 79%; Actual efficacy [11]: 98%; Expected value, calculated using Colby's formula [11]: 90%; Actual efficacy [12]: 99%; Expected value, calculated using Colby's formula [12]: 99% |
